Test results as given in patent US20060008466A1, “Methods for treating and preventing microbial infections” (University of Saskatchewan, priority 2004, published 2006).
Bridge positions count the residues as written; N and C are the ends. Ends that are not written are not given here.

Columns and labels:
[1] = test system: B. pertussis; assay: In vitro bactericidal activity against B. pertussis in SS medium, viable counts (CFU) on BG agar; format: cell-based, B. pertussis strain Tohama I
Experimental: The B. pertussis strain used in these experiments was Tohama I. Bacterial suspensions were stored at −70° C. in casamino acid plus 10% glycerol. Organisms were initially grown on the surface of Bordet-Gengou (BG) agar containing 15% (vol/vol) defibrinated sheep blood and 40 μg/ml of Cephalexin at 37° C. for 48 hrs. The bacterial cells were harvested and washed in phosphate-buffered saline (PBS, pH 7.2) by centrifugation at 2500 g for 10 min. The pellets were resuspended in saline and adjusted to a specified bacterial titer by determining the optical density at 600 nm using a spectrophotometer; The corresponding viable counts of these suspensions were measured by plating out serial dilutions of the bacterial suspension onto BG-agar and incubating at 37° C. for 4-5 days.
To examine the bactericidal effect of defensin against B. pertussis, 10 μl of bacterial suspension (OD600 nm of 0.2) was added to 200 μl of Stainer and Scholte (SS) broth medium with or without chemically synthesized defensin at different concentrations in a 96 well plate and incubated at 37° C. for up to 30 hours. At the end of each incubation period (6 hrs, 18 hrs, 24 hrs, 30 hrs), the culture medium was immediately removed for quantification of viable bacteria. The culture medium with or without defensin was plated onto BG agar plates and incubated at 37° C. for up to 4 days after which time the number of colonies were counted. The number of surviving bacteria was estimated by colony-forming units (CFU). The results were confirmed by three independent experiments compared with results from control bacterial culture (no peptide).
20, 40 and 80 μg of pBD-1 was added to bacterial culture and incubated at 37° C. Aliquots were removed at 6, 18 and 30 hr post incubation and incubated for 4 days on BG plates at 37° C.
(§1) Bactericidal activity of bronchoalveolar lavage (BAL) fluid obtained from non-infected piglets was analyzed against B. pertussis in vitro. Non-infected piglets, either 4-5 weeks old or newborn piglets (6 hours old, colostrum-deprived or colostrum-fed), were euthanized and BALs were collected in Stainer-Scholte (SS) medium. The BAL fluid was obtained by filling the lungs with 10 ml of SS medium and withdrawing as much fluid as possible (this procedure was performed once). Alveolar macrophages and other cells were removed by centrifugation at 500 g for 10 minutes. BALs (290 μl) were co-cultured in microtiter plates with 10 μl bacterial suspension containing 5-7×10^6 CFU of B. pertussis at 37° C. Supernatants were plated onto BG agar plates at different time points to evaluate the number of viable bacteria. The sensitivity of B. pertussis to synthetically derived pBD-1 and human beta-defensin 2 (hBD-2) was assayed by co-culturing appropriate concentrations of pBD-1 or hBD-2 in SS-medium (280 μl) with 5-7×10^6 CFU (10 μl) bacteria. Plates were incubated at 37° C. for 2, 6, 18 and 24 hours. The same procedures were followed to investigate the inhibitory effects of BAL, pBD-1 and hBD-2 against B. bronchiseptica in vitro.

[2] = test system: Salmonella typhimurium; conditions: 40 μg/ml; cited from earlier work
[3] = test system: Candida albicans; conditions: 40 μg/ml; cited from earlier work
[4] = test system: B. bronchiseptica; assay: In vitro bactericidal activity against B. bronchiseptica, plate counts; format: cell-based
Experimental: (§2) E. coli, Actinobacillus pleuropneumoniae and B. bronchiseptica were grown on agar plates using routine procedures. The bacteria were washed off the plates, washed in saline and subsequently resuspended in media. They were co-incubated with pBD-1 in varying doses and incubated for various time periods (6-48 hours). The bacteria were quantified by plating the suspension onto agar plates.
as §1

[5] = test system: B. pertussis; assay: Transmission electron microscopy of B. pertussis after pBD-1 treatment; format: cell-based; conditions: 20 and 40 μg/ml; 60 minutes at 37° C.
Experimental: (§3) To determine the potential mechanism of action of pBD-1, transmission electron microscopy (TEM) was employed to evaluate the effect of pBD-1 on the bacterial membrane of B. pertussis and B. bronchiseptica following treatment with pBD-1. pBD-1 was added at a final concentration of 20 μg/ml or 40 μg/ml to 5-9×10^9 CFU bacteria and incubated for 60 minutes at 37° C. Bacteria were washed with PBS, fixed with an equal volume of 5% glutaraldehyde in 0.1 M sodium cacodylate buffer (pH 7.4), and centrifuged at 5000 g for 5 minutes. Cells were resuspended in 1% agarose and pelleted. The bacterial pellets were stored in the fixative (2.5% glutaraldehyde) at 4° C. for 2 hours. The samples were dehydrated and en bloc stained with uranyl acetate in a series of ethanol concentrations and then embedded in Epon/Araldite. Thin sections were cut using an ultramicrotome with a diamond knife, mounted on specimens grids and stained with uranyl acetate and lead citrate before being examined on a transmission electron microscope (Philips 410LS) operating at 80 kV and at magnification ranging from 24000-55000×.

[6] = test system: Listeria monocytogenes; conditions: 40 μg/ml; cited from earlier work
[7] = test system: B. bronchiseptica; assay: Transmission electron microscopy of B. bronchiseptica after pBD-1 treatment; format: cell-based; conditions: 80 μg/ml
Experimental: as §3, with “bronchiseptica following treatment with pBD-1. pBD-1 was added at a final concentration of 20 μg/ml or 40 μg/ml to 5-9×10^9 CFU bacteria” left out

[8] = test system: Streptococcus suis; assay: In vitro inhibitory activity against Streptococcus suis; format: cell-based; conditions: FIG. 6B
Description: (§4) The inhibitory activity of pBD-1 on the Gram-negative bacteria Actinobacillus pleuropneumoniae, Bordetella bronchiseptica, Streptococcus suis and E. coli was also examined. FIGS. 6A-6B show the results on A. pleuropneumoniae, S. suis, B. bronchiseptica and B. pertussis. The results for E. coli are not shown.

[9] = test system: Escherchia coli; conditions: 40 μg/ml; cited from earlier work
[10] = test system: Actinobacillus pleuropneumoniae; assay: In vitro inhibitory activity against Actinobacillus pleuropneumoniae; format: cell-based; conditions: FIG. 6A
Experimental: as §2, §4

[11] = test system: E. coli; assay: In vitro inhibitory activity against E. coli; format: cell-based; conditions: results not shown
Experimental: as §2, §4

[12] = test system: B. pertussis; assay: In vivo antimicrobial activity: pBD-1 delivered into lungs of newborn piglets, challenge with B. pertussis
Experimental: Pregnant Landrace sows were purchased from the Saskatoon Prairie Swine Centre, University of Saskatchewan. Sows were induced to farrow by intramuscular (i.m.) injection of prostaglandin (Planate) (Schering, Quebec, Canada) at day 113 of gestation. Piglets were born at day 114-115 of gestation. Nursing piglets were kept within the same room, but in separated pens and monitored very closely. The piglets were challenged at 3-5 days of age. All experiments were conducted in accordance with the ethical guidelines of the University of Saskatchewan and the Canadian Council for Animal Care (CCAC).
Newborn piglets were anaesthetized with isoflurane and intubated using a laryngoscope. Infection was initiated by delivering 5×10^9 CFU of B. pertussis strain Tohama I intrapulmonarily (craniodorsal of the bifurcation) through a MICRO-RENATHANE tube (0.95) (Braintree Scientific Inc., Braintree, Mass., USA), which was inserted through an endotracheal tube (3 mm) (Jorgensen Laboratories Inc. Loveland, Colo., USA). The bottom-end of the MICRO-RENATHANE tube was sealed and minute holes were made for the equal distribution of bacteria. Piglets were monitored twice daily for clinical symptoms including fever and respiratory symptoms such as nasal discharge, non paroxysmal cough and breathing difficulties. Piglets were euthanized by i.p. injection of 5 ml of Euthanyl (Sodium barbiturate; Bimeda-MTC, Ont, Canada) at different time points over a 10 day period post challenge. The thoracic and the abdominal cavities and the lungs were examined for any lesions and abnormalities such as pleuritis or local collections of blood and fluids in the thorax were noted.
The antimicrobial activity of pBD-1 was tested in vivo by delivery of pBD-1 into the lungs of newborn piglets prior to challenge with B. pertussis. Pregnant sows, Landrace, were purchased from Saskatoon Prairie Swine Centre, University of Saskatchewan. Sows were farrowed out by i.m. injection of prostaglandin (Planate). Three to four day old colostrum-fed piglets were anaesthetized with isoflurane. 500 μg of pBD-1 dissolved in 1.5 ml PBS was delivered to the lung using a tube placed through the trachea in front of the bifurcation which marks the beginning of the lung (craniodorsal of bifurcation). A volume of 1.5 ml was delivered. Following the delivery of the pBD-1, all piglets were challenged with 5×10^9 cfu bacteria (n=10) by the same procedure. Control animals received saline instead of pBD-1 and were subsequently challenged. Piglets were kept with their sows within the same room in separated pens. Piglets were monitored twice a day.
In addition, the number of bacteria in BAL fluid and lung lesions was examined over a 10 day period. The BAL fluid was obtained by filling the lungs with 15 ml of SS-medium and withdrawing as much fluid as possible. To quantify the presence of B. pertussis in the BAL, fluid samples were centrifuged to remove debris and host cells; supernatant and dilutions thereof were plated onto BG plates and incubated at 37° C. for up to a week. To determine the number of bacteria within tissues, lesions were excised, weighed, homogenized and plated onto BG agar plates.

[13] = test system: B. pertussis isolates; conditions: cited from earlier work

With “H-KNIGNSVSCLRNKGVCMPGKCAPKMKQIGTCGMPQVKCCKRK-NH2 (disulfide 9-38, 16-31, 21-39) [pBD-1]” the “bactericidal activity in diluted SS medium” value ([1]; 10 μg/ml, 1/10 diluted SS medium in PBS, shorter period of time (FIG. 5B)) was “even stronger bactericidal activity”, the “growth inhibition in comparison with control medium” value ([1]; 20 μg/ml, 6 hours, repeated assay (FIG. 5A)) was “at least 2 logs” and the “inhibition of B. pertussis growth” value ([1]; 40 μg/ml, 18 hours of incubation (FIG. 4)) was “complete inhibition”. The “neutralization of 5-8×10^6 CFU of B. pertussis” value ([1]; 80 μg/ml, 18 hours, repeated assay (FIG. 5A)) was “completely neutralized”, the “effect of serum on antimicrobial activity” value ([1]; 10-50% rabbit serum added to the medium) was “did not inhibit” and the “inhibitory effect against B. pertussis, dependence” value ([1]; 20, 40, 80 μg, 6, 18, 30 hr) was “dose and time dependent”. For the same substance, the “antimicrobial activity against B. pertussis on addition of salt” value ([1]; addition of salt) was “significantly reduced”, the “reduction in bacterial growth compared to untreated control wells” value ([1]; after 6 hours of incubation, 20-80 μg pBD-1) was “about 2 logs” and the “reduction of bacterial growth” value ([1]; after 18 hours, depending on the dose used) was “more than 100,000 fold”. The “reduction of the bacterial growth” value ([1]; after 30 hours) was 1,000,000 fold, the salt-dependent bactericidal activity [2] was “has been demonstrated” and the salt-dependent bactericidal activity [3] was “has been demonstrated”. For the same substance, the “growth of B. bronchiseptica” value ([4]; 40 μg/ml, 6 and 24 hours (FIG. 7B)) was “unaffected”, the “susceptibility of B. bronchiseptica” value ([4]; 160 μg/ml, up to 48 hours incubation) was “resistant” and the inhibitory activity ([4]; FIG. 6C) was “Inhibitory activity was observed against all of these organisms except B. bronchiseptica”. For the same substance, the “morphological effect on the bacterial cell surface” value [5] was “substantial morphological damage”, the salt-dependent bactericidal activity [6] was “has been demonstrated” and the “ultrastructural effect on bacteria” value [7] was “did not result in major ultrastructural abnormalities or discrete holes”. The inhibitory activity [8] was “Inhibitory activity was observed”, the salt-dependent bactericidal activity [9] was “has been demonstrated” and the inhibitory activity [10] was “Inhibitory activity was observed”. For the same substance, the inhibitory activity [11] was “Inhibitory activity was observed”, the “protection of infected piglets” value ([12]; 500 μg into the lung at time of challenge, 5×10^9 CFU B. pertussis) was “complete protection” and the “clinical symptoms (fever, respiratory symptoms)” value ([12]; 500 μg into the lung, all treated animals, all controls had fever and respiratory symptoms) was “no clinical symptoms”. For the same substance, the “clinical symptoms and pathological alterations” value ([12]; 500 μg, at 2, 4, 7 and 10 days post infection) was “total absence”, the “lesions in the histopathology of lung tissues” value ([12]; 500 μg, compared with challenged control piglets) was “either minor or no lesions” and the “numbers of bacteria in homogenized lung tissues” value ([12]; 500 μg, days 2, 4, 7 and 10 post infection, p<0.005 (FIG. 10B)) was “significantly lower numbers of bacteria”. The “numbers of isolated bacteria in BALs” value ([12]; 500 μg, days 2, 4 and 7 post infection, p<0.0001 (FIG. 10A)) was “significantly reduced”.

For “human β-defensin-1: human β-defensin-1, cited from Baneman et al. as without effect on B. pertussis (DHYNCVSSGGQCLYSACPIFTKIQGTCYRGKAKCCK; ends and bridges not checked; cysteine pairing not given here; UniProt P60022 33-68, looked up)”, the “effect on B. pertussis isolates” value [13] is given as “no effect”.
